Reference: patent publication US20250304990A1, “HERBICIDE RESISTANCE” (SYNGENTA CROP PROTECTION AG, priority 2021, published 2025)

Key:
Experiment in all cases: Dose response test, growth in 96-well plates
Format in all cases: cell-based, Chlorella fusca
Cf WT = conditions: Cf WT; 2-fold dilutions from 100 ppm
Procedure: (§1) Dose response tests with B5U were set-up in 96-well, flat bottomed plates. 200 μl medium was used in each well. 2 μl of 6 day old culture was added to each well, then 2 μl of DMSO or dilution of test compound were added to respective wells. 2-fold dilutions starting at 100 ppm were used per well. Plates were incubated at 25° C., 50 μmol/m^2/s, 16 hour photoperiod.
(§2) This was assessed by a visual inspection of growth in the 96-well plate. The inhibitor concentration at which no growth is observed is then defined as the LD.
(§3) Starting dose was 100 ppm and decreasing with 2-fold dilutions with C. fusca wt, the five HST mutants and the 10 compounds to which the wt is sensitive. Plates were incubated at 25° C., 50 μmol/m2/s, 16 hour photoperiod.

Cf-496-15 = Cf-496-15 (T277N); 2-fold dilutions from 100 ppm
Procedure: as §1, §2, §3

Cf-496-19 = Cf-496-19 (F275I); 2-fold dilutions from 100 ppm
Procedure: as §1, §2, §3

Cf-496-28 = Cf-496-28 (V276A); 2-fold dilutions from 100 ppm
Procedure: as §1, §2, §3

Cf-496-8 = Cf-496-8 (M278L_F279I); 2-fold dilutions from 100 ppm
Procedure: as §1, §2, §3

Cf-496-94 = Cf-496-94 (F275L); 2-fold dilutions from 100 ppm
Procedure: as §1, §2, §3

SMILES: Cc1nn(C)c(=O)c(-c2c(F)ccc(Cl)c2CCc2ccccc2C(F)(F)F)c1O [B5m, 4-[3-chloro-6-fluoro-2-[2-[2-(trifluoromethyl)phenyl]ethyl]phenyl]-5-hydroxy-2,6-dimethyl-pyridazin-3-one]
- dose response to HST inhibiting compounds (Cf WT): 12.5 ppm
- dose response to HST inhibiting compounds (Cf-496-15): >100 ppm
- dose response to HST inhibiting compounds (Cf-496-19): >100 ppm
- dose response to HST inhibiting compounds (Cf-496-28): >100 ppm
- dose response to HST inhibiting compounds (Cf-496-8): >100 ppm
- dose response to HST inhibiting compounds (Cf-496-94): >100 ppm
